Test results: publication PMC4460250, “Systems Pharmacology Dissecting Holistic Medicine for Treatment of Complex Diseases: An Example Using Cardiocerebrovascular Diseases Treated by TCM” (Evidence-based Complementary and Alternative Medicine : eCAM, 2015)

Tests used:
[1] = in vivo
[2] = in vivo; cited from earlier work

For `O=C1Nc2ccc(Cl)cc2C(c2ccccc2Cl)=N[C@H]1O` [Lorazepam(S)], the “Class(High: HIA value ≥0.7; Low: HIA value < 0.7)” value [1] is listed as “High (key: High: HIA value ≥0.7; Low: HIA value < 0.7)” and the “HIA(Human Intestinal Absorption)” value [2] is listed as 0.95.
In the case of `CC(C)(C)NC[C@@H](O)COc1cccc2c1CCC(=O)N2` [Carteolol(R)], the “Class(High: HIA value ≥0.7; Low: HIA value < 0.7)” value [1] is given as “High (key: High: HIA value ≥0.7; Low: HIA value < 0.7)” and the “HIA(Human Intestinal Absorption)” value [2] is given as 0.95.
In the case of `Cc1cccc(C)c1NC(=O)[C@@H](C)N` [Tocainide(R)], the “Class(High: HIA value ≥0.7; Low: HIA value < 0.7)” value [1] is given as “High (key: High: HIA value ≥0.7; Low: HIA value < 0.7)” and the “HIA(Human Intestinal Absorption)” value [2] is given as 1.
In the case of `CCN1CCC[C@@H]1CNC(=O)c1cc(S(=O)(=O)CC)ccc1OC` [Sultopride(R)], the “Class(High: HIA value ≥0.7; Low: HIA value < 0.7)” value [1] is listed as “High (key: High: HIA value ≥0.7; Low: HIA value < 0.7)” and the “HIA(Human Intestinal Absorption)” value [2] is listed as 0.89.
For `CN(C)CCC[C@]1(c2ccc(F)cc2)OCc2cc(C#N)ccc21` [Citalopram(R)], the “Class(High: HIA value ≥0.7; Low: HIA value < 0.7)” value [1] is given as “High (key: High: HIA value ≥0.7; Low: HIA value < 0.7)” and the “HIA(Human Intestinal Absorption)” value [2] is given as 1.
In the case of `CC(Cc1ccc(O)cc1)NCC(O)c1cc(O)cc(O)c1` (stereo not shown) [Fenoterol], the “Class(High: HIA value ≥0.7; Low: HIA value < 0.7)” value [1] is listed as “Low (key: High: HIA value ≥0.7; Low: HIA value < 0.7)” and the “HIA(Human Intestinal Absorption)” value [2] is listed as 0.6.
In the case of `CC(C)(C)NC[C@@H](O)c1cc(O)cc(O)c1` [Terbutaline(S)], the “Class(High: HIA value ≥0.7; Low: HIA value < 0.7)” value [1] is listed as “Low (key: High: HIA value ≥0.7; Low: HIA value < 0.7)” and the “HIA(Human Intestinal Absorption)” value [2] is listed as 0.63.
In the case of `O=C(NC[C@H]1CCCCN1)c1cc(OCC(F)(F)F)ccc1OCC(F)(F)F` [Flecainide(R)], the “Class(High: HIA value ≥0.7; Low: HIA value < 0.7)” value [1] is listed as “High (key: High: HIA value ≥0.7; Low: HIA value < 0.7)” and the “HIA(Human Intestinal Absorption)” value [2] is listed as 0.81.
For `COc1ccc(Cc2nccc3cc(OC)c(OC)cc23)cc1OC` [Papaverine], the “Class(High: HIA value ≥0.7; Low: HIA value < 0.7)” value [1] is given as “High (key: High: HIA value ≥0.7; Low: HIA value < 0.7)” and the “HIA(Human Intestinal Absorption)” value [2] is given as 0.9.
In the case of `C[C@H](CN1CCOCC1)C(C(=O)N1CCCC1)(c1ccccc1)c1ccccc1` [Dextromoramide], the “Class(High: HIA value ≥0.7; Low: HIA value < 0.7)” value [1] is listed as “High (key: High: HIA value ≥0.7; Low: HIA value < 0.7)” and the “HIA(Human Intestinal Absorption)” value [2] is listed as 1.
For `CC(C)[C@H]1CC[C@H](C(=O)N[C@H](Cc2ccccc2)C(=O)O)CC1` [Nateglinide(R)], the “Class(High: HIA value ≥0.7; Low: HIA value < 0.7)” value [1] is given as “High (key: High: HIA value ≥0.7; Low: HIA value < 0.7)” and the “HIA(Human Intestinal Absorption)” value [2] is given as 0.83.
In the case of `CO[C@@]1(NC(=O)C(C(=O)O)c2ccc(O)cc2)C(=O)N2C(C(=O)O)=C(CSc3nnnn3C)CO[C@@H]21` (stereo partly drawn) [Moxalactam(R)], the “Class(High: HIA value ≥0.7; Low: HIA value < 0.7)” value [1] is given as “Low (key: High: HIA value ≥0.7; Low: HIA value < 0.7)” and the “HIA(Human Intestinal Absorption)” value [2] is given as 0.01.
For `CN(Cc1cnc2nc(N)nc(N)c2n1)c1ccc(C(=O)NC(CCC(=O)O)C(=O)O)cc1` (stereo in doubt) [Methotrexate(R)], the “Class(High: HIA value ≥0.7; Low: HIA value < 0.7)” value [1] is listed as “High (key: High: HIA value ≥0.7; Low: HIA value < 0.7)” and the “HIA(Human Intestinal Absorption)” value [2] is listed as 1.
In the case of `CC(C)NC[C@H](O)c1ccc(NS(C)(=O)=O)cc1` [Sotalol(R)], the “Class(High: HIA value ≥0.7; Low: HIA value < 0.7)” value [1] is given as “High (key: High: HIA value ≥0.7; Low: HIA value < 0.7)” and the “HIA(Human Intestinal Absorption)” value [2] is given as 0.95.
In the case of `N[C@@H](C(=O)N[C@@H]1C(=O)N2C(C(=O)O)=C(Cl)CC[C@H]12)c1ccccc1` [Loracarbef], the “Class(High: HIA value ≥0.7; Low: HIA value < 0.7)” value [1] is listed as “High (key: High: HIA value ≥0.7; Low: HIA value < 0.7)” and the “HIA(Human Intestinal Absorption)” value [2] is listed as 1.
For `O=C(c1ccccc1)c1ccc2n1CC[C@H]2C(=O)O` [Ketorolac(R)], the “Class(High: HIA value ≥0.7; Low: HIA value < 0.7)” value [1] is listed as “High (key: High: HIA value ≥0.7; Low: HIA value < 0.7)” and the “HIA(Human Intestinal Absorption)” value [2] is listed as 0.95.
For `CC[C@@H](C(N)=O)N1CCCC1=O` [Levetiracetam(S)], the “Class(High: HIA value ≥0.7; Low: HIA value < 0.7)” value [1] is listed as “High (key: High: HIA value ≥0.7; Low: HIA value < 0.7)” and the “HIA(Human Intestinal Absorption)” value [2] is listed as 1.
In the case of `CO/N=C(\C(=O)N[C@@H]1C(=O)N2C(C(=O)OC(C)OC(C)=O)=C(COC(N)=O)CS[C@H]12)c1ccco1` (stereo partly drawn) [Cefuroximeaxetil(R)], the “Class(High: HIA value ≥0.7; Low: HIA value < 0.7)” value [1] is listed as “Low (key: High: HIA value ≥0.7; Low: HIA value < 0.7)” and the “HIA(Human Intestinal Absorption)” value [2] is listed as 0.36.
For `NC[C@@H]1O[C@H](O[C@H]2[C@@H](O)[C@H](O[C@@H]3[C@@H](O)[C@H](N)C[C@H](N)[C@H]3O[C@H]3O[C@H](CN)[C@@H](O)[C@H](O)[C@H]3N)O[C@@H]2CO)[C@H](N)[C@@H](O)[C@@H]1O` [Neomycin], the “Class(High: HIA value ≥0.7; Low: HIA value < 0.7)” value [1] is given as “Low (key: High: HIA value ≥0.7; Low: HIA value < 0.7)” and the “HIA(Human Intestinal Absorption)” value [2] is given as 0.03.
For `COCCc1ccc(OC[C@@H](O)CNC(C)C)cc1` [Metoprolol(S)], the “Class(High: HIA value ≥0.7; Low: HIA value < 0.7)” value [1] is listed as “High (key: High: HIA value ≥0.7; Low: HIA value < 0.7)” and the “HIA(Human Intestinal Absorption)” value [2] is listed as 0.96.
For `CCO` [Ethyl_alcohol], the “Class(High: HIA value ≥0.7; Low: HIA value < 0.7)” value [1] is listed as “High (key: High: HIA value ≥0.7; Low: HIA value < 0.7)” and the “HIA(Human Intestinal Absorption)” value [2] is listed as 1.
In the case of `C[C@H](CN(C)C)CN1c2ccccc2CCc2ccccc21` [Trimipramine(R)], the “Class(High: HIA value ≥0.7; Low: HIA value < 0.7)” value [1] is given as “High (key: High: HIA value ≥0.7; Low: HIA value < 0.7)” and the “HIA(Human Intestinal Absorption)” value [2] is given as 0.8.
For `Cc1cc(=O)n(-c2ccccc2)n1C` [Antipyrine], the “Class(High: HIA value ≥0.7; Low: HIA value < 0.7)” value [1] is given as “High (key: High: HIA value ≥0.7; Low: HIA value < 0.7)” and the “HIA(Human Intestinal Absorption)” value [2] is given as 0.97.
